For the assay, the system named is HaCaT cells. The assay can be described thus: Apoptosis assay (FITC Annexin V/PI) after ultraviolet irradiation. The conditions noted are these: 2 h pretreatment, ultraviolet 50 mJ/cm^2, 48 hours, mean ± SEM. It is filed as cell-based, human. Here is the method:
Four groups of NMuMG cells (i.e., a normal control group referred to as Normal Control Group 1-A, an ultraviolet control group referred to as UV Control Group 1-A, and two experimental groups referred to as Experimental Groups 1-A to 2-A) and four groups of HaCaT cells (i.e., a normal control group referred to as Normal Control Group 1-B, an ultraviolet control group referred to as UV Control Group 1-B, and two experimental groups referred to as Experimental Groups 1-B to 2-B), were prepared based on the procedure set forth in “Source and cultivation of cell lines” of “Experimental materials”. The cells in each group were cultivated using 5 mL of a corresponding medium shown in Table 1 and a 6-cm Petri dish in an incubator (37° C., 5% CO2) for 24 hours. […]
Subsequently, the stained cells were analyzed using BD Accuri™ C6 flow cytometry, in which cells that could be stained with FITC Annexin V but not with PI (i.e., FITC Annexin V positive and PI negative) represented cells that were induced with early apoptosis; cells stained with both FITC Annexin V and PI (i.e., FITC Annexin V positive and PI positive) represented cells that were induced with late apoptosis; and cells that could not be stained with FITC Annexin V and PI (i.e., FITC Annexin V negative and PI negative) represented viable cells. […]

Take `COc1cc(-c2oc3cc(O)cc(O)c3c(=O)c2O[C@@H]2O[C@H](CO)[C@@H](O)[C@H](O)[C@H]2O)ccc1O` [isorhamnetin-3-O-β-D-glucoside]: the Apoptosis percentage (50 μM) amounted to 26.13 ± 7.26 % and the Apoptosis percentage (100 μM) is reported as 23 ± 2.19 %.

Source of the values: patent US9821002B2, “Method for alleviating radiation injury with isorhamnetin-3-O-β-D-glucoside” (Sinotai Oncology Associate., Ltd., priority 2015, dated 2017).
